# Earlier results in patent US20230133919A1, “COMPOSITIONS AND RELATED METHODS FOR REDUCING VAPOR EFFECT OF VOLATILE HERBICIDES” (BOARD OF TRUSTEES OF MICHIGAN STATE UNIVERSITY, priority 2020, published 2023).
# Details: approximate
row,SMILES,vapor pressure
1,"CCCCC(CC)COC(=O)COc1ccc(Cl)cc1Cl (stereo not shown) [2,4-D (2-ethylhexyl ester)]",~4.8×10^−4 Pa
2,"CCCCOCCOC(=O)COc1ccc(Cl)cc1Cl [2,4-D (butoxyethyl ester)]",~3.2×10^−4 Pa
3,"CNC.O=C(O)COc1ccc(Cl)cc1Cl [2,4-D (dimethylamine salt)]",~1.3×10^−5 Pa
4,"CC(C)OC(=O)COc1ccc(Cl)cc1Cl [2,4-D (isopropyl ester)]",~1.9×10^1 Pa
